In PMC8375220 (Peptides, 2021):
Read-outs that look alike come from different tables or passages of the source. Where no end group is shown, it is not given here.

What was measured:
[1] = tested on: SARS-CoV-2 spike pseudovirions
[2] = tested on: Human umbilical vein endothelial cells (HUVECs); test: HUVEC viability; format: cell-based
BALB/c mice = test: In vivo toxicity after intranasal administration; set-up: species or system mouse; conditions: 2.5 mg/kg single intranasal dose
SARS-CoV-2 spike RBD = SARS-CoV-2 spike RBD (Severe acute respiratory syndrome coronavirus 2, UniProt P0DTC2); test: biochemical; format: binding
[3] = tested on: SARS-CoV-2 spike pseudovirion; conditions: cited from earlier work

ACE2
IC50, inhibition of SARS-CoV-2 spike pseudovirion infection [1]: 0.067 µg/mL

GKGDFRI [GK-7, GKGDFRI]
HUVEC survival ([2]; 24 h, doses up to 200 μg/mL, CCK-8): did not affect cell survival
fold of highest non-cytotoxic dose (200 μg/mL) over pseudovirion IC50 ([2]; HUVECs 24 h versus IC50 2.96 μg/mL): approximately 68 fold
effect on ALT, AST, blood urea and creatinine contents (BALB/c mice): minor effects
HE staining of major organs (BALB/c mice; day 7): no pathological changes
effect on RBC, WBC and platelet counts in the blood (BALB/c mice; day 7): minor effects
effect on organ index (heart, liver, spleen, lungs, kidneys) (BALB/c mice; day 7): minor effects
Kd (SARS-CoV-2 spike RBD): 25.1 nM
IC50, inhibition of SARS-CoV-2 spike pseudovirion infection ([1]; spike pseudovirions, 12 h): 2.96 µg/mL

LL37
IC50, SARS-CoV-2 spike pseudovirion infection [3]: 4.74 µg/mL
